We go through 7 compounds from PubChem BioAssay (NCI).

Common to all, as to test: NCI-60 cell line screen, 48 h
For assay [1], the system named is A498 renal.
Assay [2] deals with A549 NSCLC.
The subject of assay [3] is COLO 205 colon.
Assay [4] concerns EKVX NSCLC.
Assay [5] has as its system HCT-15 colon.
Assay [6] concerns HS 578T breast.
The test system of assay [7] is K-562 leukemia.
Assay [8] deals with M14 melanoma.
The subject of assay [9] is MDA-MB-231 breast.
The subject of assay [10] is NCI-H226 lung.
Assay [11] relates to NCI-H23 lung.
Assay [12] deals with OVCAR-3 ovarian.
Assay [13] deals with SF-539 CNS.
For assay [14], the system named is SK-MEL-5 melanoma.
For assay [15], the system named is SR leukemia.
Assay [16] deals with TK-10 renal.
Assay [17] has as its system UACC-257 melanoma.
Assay [18] deals with UACC-62 melanoma.
In assay [19] the test system is LOX IMVI melanoma.
Assay [20] concerns SF-268 CNS.

Structures are written as SMILES.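 Growth conditions: 96-well plates. Treatment: test compound, 48 hours, 5 concentrations. Analysis: linear interpolation between bracketing concentrations; unreached endpoints set to highest concentration. Definition used: TGI = concentration required for complete inhibition of growth.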 Where only a bound is given, the exact number is not on record here.

As to `Cn1nc2ccc([N+](=O)[O-])cc2[n+]1[O-]`, the TGI in assay [1], in [2], in [3], in assay [4], in assay [5] and in assay [6] was over 100 µM throughout. The TGI in assay [7], in assay [8], in assay [9], in assay [10], in assay [11] and in assay [12] was over 100 µM throughout. Besides, the TGI in assay [13], in [14], in assay [15], in [16], in [17] and in [18] was over 100 µM throughout.

Turning to `COC(=O)CCC1=NCC(C)(C)O1`, the TGI in [1], in [2], in assay [3], in assay [4], in assay [5] and in assay [6] was over 10 µM in each case. The TGI in assay [19], in [8], in [9], in assay [10], in assay [11] and in [12] was over 10 µM each time. The TGI in [20], in [13], in assay [14], in assay [15], in [16] and in assay [17] was over 10 µM throughout. For the same compound, in [18], the TGI is over 10 µM.

Turning to `Cc1cc(C)c2c(n1)S(=O)(=O)N(CCCN1CCN(c3cccc(Cl)c3)CC1)/C(=C(\O)c1ccccc1)C2=O`, the TGI in assay [1] is over 100 µM; in [2], over 100 µM; in [3], 36.9 µM; in [4] it was 82.7 µM; in assay [5], over 100 µM; in [6], over 100 µM. The TGI was over 100 µM in assay [7]; over 100 µM in assay [19]; over 100 µM in assay [8]; over 100 µM in assay [9]; 89.1 µM in assay [11]; over 100 µM in [12]. The TGI in assay [20] was over 100 µM; in assay [13], over 100 µM; in assay [14], 60.2 µM; in assay [15], 68.9 µM; in assay [16], 78.5 µM; in assay [17], 55.4 µM. For the same compound, in [18], the TGI was over 100 µM.

As for `O=C(O)CCO/N=C1/C(c2c(O)[nH]c3ccccc23)=Nc2ccccc21`, the TGI was 74.2 µM in assay [1]; over 100 µM in assay [2]; 35.1 µM in assay [3]; 47.9 µM in [4]; 42.3 µM in assay [5]; over 100 µM in assay [6]. In addition, the TGI in assay [7] is over 100 µM; in [19] it was 44.8 µM; in assay [8], over 100 µM; in [9] it was over 100 µM; in assay [11], 66.5 µM; in assay [12], 43.9 µM. In addition, the TGI in [20] was over 100 µM; in assay [13], over 100 µM; in assay [14], 27.3 µM; in assay [15] it was 57.9 µM; in [16] it was over 100 µM; in [17] it was over 100 µM. The TGI in assay [18] was 46.9 µM.

`Cc1ccc(/C=C2/N=C(N/N=C\C(O)C(O)C(O)CO)NC2=O)cc1` (stereo unspecified): the TGI in assay [1], in assay [2], in assay [3], in [4], in assay [5] and in assay [6] was over 100 µM each time. Moreover, the TGI in [7], in [19], in assay [8], in assay [9], in assay [10] and in [12] was over 100 µM each time. In addition, the TGI in assay [20], in assay [13], in assay [14], in [15], in [16] and in assay [17] was over 100 µM in each case.

In the case of `CCOC(=O)c1nc2ccccc2nc1NCc1ccc(OC)c(OC)c1`, the TGI in [1], in assay [2], in assay [3], in [4], in [5] and in [6] was over 100 µM throughout. Moreover, the TGI in [7], in assay [19], in [9], in [10], in assay [11] and in assay [12] was over 100 µM in each case. For the same compound, the TGI in [20], in [13], in assay [14], in assay [15], in [16] and in assay [17] was over 100 µM in each case. The compound further showed a TGI in assay [18] of over 100 µM.

`N#CCCN(CCC#N)c1ccc(C(N=Nc2ccc(Cl)cc2)=Nc2ccccc2)cc1`: the TGI in [1] came to 34.5 µM; in assay [2], 29.1 µM; in assay [3], 12.4 µM; in assay [4], 24.4 µM; in [5] it was 21.2 µM; in [6], 35 µM. Also, the TGI in assay [7] is over 100 µM; in assay [8], 26.9 µM; in assay [9] it was 33.8 µM; in assay [10], 31.9 µM; in [11] it was 25.7 µM; in assay [12] it was 22.1 µM. Further, the TGI was 27.1 µM in [20]; 29.1 µM in assay [13]; 5.13 µM in assay [14]; over 100 µM in assay [15]; 29.1 µM in assay [16]; 20.8 µM in [17]. Moreover, the TGI in assay [18] was determined as 21.8 µM.
